{"source": "patent US8603527B2", "about": "“Pharmaceutical formulations of a substituted diaminopurine” (Signal Pharmaceuticals, LLC, priority 2010, dated 2013)", "key": {"healthy volunteers": {"system": "healthy volunteers", "assay": "Safety and tolerability of ascending multiple oral doses in healthy volunteers", "type": "in vivo, human", "method": "Study Design: This study was a randomized, double-blind, placebo-controlled, ascending-dose trial to evaluate the safety, tolerability and pharmacokinetics (PK) of multiple oral doses of Compound I. Subjects were enrolled into 1 of the 4 cohorts, 10 subjects per cohort (active:placebo=8:2). Subjects received a multiple oral dose of 25, 50, 100, or 200 mg unformulated Compound I in a capsule, or matching placebo, once daily (QD) for 14 days.\nAssessments: Safety and tolerability were assessed by adverse event (AE) monitoring, clinical laboratory testing, vital sign measurement, 12-lead ECG measurement, concomitant medication assessment, and physical examination. Blood and urine samples were collected to assess the PK profile of Compound I and the S-cis isomer of Compound I. Blood samples (˜5 mL) for plasma PK analysis were collected in K2-EDTA vacutainer tubes to yield approximately 2 mL of plasma at each of the following time points: (i) Day 1: before dosing, and 0.25, 0.5, 1, 1.5, 2, 2.5, 3, 4, 6, 8, 10, 12, 16, and 24 hours after dosing; (ii) Day 3 to Day 9: before dosing; (iii) Day 10: before dosing, and 0.25, 0.5, 1, 1.5, 2, 2.5, 3, 4, 6, 8, 10, 12, and 16 hours after dosing; (iv) Day 11 to Day 13: before dosing; (v) Day 14: before dosing, and 0.25, 0.5, 1, 1.5, 2, 2.5, 3, 4, 6, 8, 10, 12, 16, 24, 48, 72, 96, 120, 144, and 168 hours after dosing. Urine samples for the PK analysis were collected as a single block at: (i) Day 1: before dosing (spot collection), 0 to 8, 8 to 16, and 16 to 24 hours after dosing; and (ii) Day 14: 0 to 8, 8 to 16, and 16 to 24 hours after dosing. Both plasma and urine concentrations of Compound I and its S-cis isomer were measured using validated liquid chromatography-tandem mass spectrometry (LC/MS/MS).\nData Analysis: Safety data were summarized using descriptive statistics by treatment. PK parameters for Compound I and its S-cis isomer were calculated using non-compartmental analysis using WinNonlin (Version 5.0.1 or greater; Pharsight Corporation, Mountain View, Calif.). Dose proportionality and dose independence were evaluated by visual inspection. Intra-subject variability was assessed using an ANOVA model using data from Days 10 and 14."}, "[1]": {"system": "time-mated female New Zealand White Hra:(NZW)SPF rabbits", "assay": "Oral developmental toxicity study in the rabbit", "conditions": "rabbits", "description": "(§1) Additionally, four groups of five animals/group served as toxicokinetic (TK) animals and received the vehicle or test article in the same manner and dose levels as the main study groups. All time-mated females arrived at the laboratory on GD 0, the day evidence of mating was observed."}, "[2]": {"assay": "Oral developmental toxicity study in the rabbit", "conditions": "female, New Zealand White Hra:(NZW)SPF, rabbit, in vivo, oral", "description": "as §1"}}, "data": [{"compound": "O[C@H]1CC[C@H](Nc2ncc3nc(Nc4c(F)cc(F)cc4F)n([C@H]4CCOC4)c3n2)CC1", "note": "[Compound I, 4-((9-((3S)-tetrahydro-3-furanyl)-8-((2,4,6-trifluorophenyl)amino)-9H-purin-2-yl)amino)-trans-cyclohexanol]", "values": [{"measurement": "Dermatitis contact, number of subjects reporting TEAE", "setting": "healthy volunteers; 25 mg QD for 14 days (N = 8)", "result": "0 n (%)"}, {"measurement": "Dizziness, number of subjects reporting TEAE", "setting": "healthy volunteers; 25 mg QD for 14 days (N = 8)", "result": "0 n (%)"}, {"measurement": "Flatulence, number of subjects reporting TEAE", "setting": "healthy volunteers; 25 mg QD for 14 days (N = 8)", "result": "0 n (%)"}, {"measurement": "Headache, E = number of TEAE", "setting": "healthy volunteers; 25 mg QD for 14 days (N = 8)", "result": 1}, {"measurement": "Headache, number of subjects reporting TEAE", "setting": "healthy volunteers; 25 mg QD for 14 days (N = 8)", "result": "1 (12.5) n (%)"}, {"measurement": "Nasal congestion, E = number of TEAE", "setting": "healthy volunteers; 25 mg QD for 14 days (N = 8)", "result": 1}, {"measurement": "Nasal congestion, number of subjects reporting TEAE", "setting": "healthy volunteers; 25 mg QD for 14 days (N = 8)", "result": "1 (12.5) n (%)"}, {"measurement": "Nausea, E = number of TEAE", "setting": "healthy volunteers; 25 mg QD for 14 days (N = 8)", "result": 1}, {"measurement": "Nausea, number of subjects reporting TEAE", "setting": "healthy volunteers; 25 mg QD for 14 days (N = 8)", "result": "1 (12.5) n (%)"}, {"measurement": "Pharyngolaryngeal pain, number of subjects reporting TEAE", "setting": "healthy volunteers; 25 mg QD for 14 days (N = 8)", "result": "0 n (%)"}, {"measurement": "Rhinitis, number of subjects reporting TEAE", "setting": "healthy volunteers; 25 mg QD for 14 days (N = 8)", "result": "0 n (%)"}, {"measurement": "Total TEAEs, E = number of TEAE", "setting": "healthy volunteers; 25 mg QD for 14 days (N = 8)", "result": 6}, {"measurement": "Total TEAEs, number of subjects reporting TEAE", "setting": "healthy volunteers; 25 mg QD for 14 days (N = 8)", "result": "3 (37.5) n (%)"}, {"measurement": "Dermatitis contact, E = number of TEAE", "setting": "healthy volunteers; 50 mg QD for 14 days (N = 8)", "result": 1}, {"measurement": "Dermatitis contact, number of subjects reporting TEAE", "setting": "healthy volunteers; 50 mg QD for 14 days (N = 8)", "result": "1 (12.5) n (%)"}, {"measurement": "Dizziness, number of subjects reporting TEAE", "setting": "healthy volunteers; 50 mg QD for 14 days (N = 8)", "result": "0 n (%)"}, {"measurement": "Flatulence, E = number of TEAE", "setting": "healthy volunteers; 50 mg QD for 14 days (N = 8)", "result": 4}, {"measurement": "Flatulence, number of subjects reporting TEAE", "setting": "healthy volunteers; 50 mg QD for 14 days (N = 8)", "result": "2 (25.0) n (%)"}, {"measurement": "Headache, E = number of TEAE", "setting": "healthy volunteers; 50 mg QD for 14 days (N = 8)", "result": 2}, {"measurement": "Headache, number of subjects reporting TEAE", "setting": "healthy volunteers; 50 mg QD for 14 days (N = 8)", "result": "2 (25.0) n (%)"}, {"measurement": "Nasal congestion, number of subjects reporting TEAE", "setting": "healthy volunteers; 50 mg QD for 14 days (N = 8)", "result": "0 n (%)"}, {"measurement": "Nausea, number of subjects reporting TEAE", "setting": "healthy volunteers; 50 mg QD for 14 days (N = 8)", "result": "0 n (%)"}, {"measurement": "Pharyngolaryngeal pain, number of subjects reporting TEAE", "setting": "healthy volunteers; 50 mg QD for 14 days (N = 8)", "result": "0 n (%)"}, {"measurement": "Rhinitis, E = number of TEAE", "setting": "healthy volunteers; 50 mg QD for 14 days (N = 8)", "result": 1}, {"measurement": "Rhinitis, number of subjects reporting TEAE", "setting": "healthy volunteers; 50 mg QD for 14 days (N = 8)", "result": "1 (12.5) n (%)"}, {"measurement": "Total TEAEs, E = number of TEAE", "setting": "healthy volunteers; 50 mg QD for 14 days (N = 8)", "result": 20}, {"measurement": "Total TEAEs, number of subjects reporting TEAE", "setting": "healthy volunteers; 50 mg QD for 14 days (N = 8)", "result": "6 (75.0) n (%)"}, {"measurement": "Dermatitis contact, number of subjects reporting TEAE", "setting": "healthy volunteers; 100 mg QD for 14 days (N = 8)", "result": "0 n (%)"}, {"measurement": "Dizziness, E = number of TEAE", "setting": "healthy volunteers; 100 mg QD for 14 days (N = 8)", "result": 2}, {"measurement": "Dizziness, number of subjects reporting TEAE", "setting": "healthy volunteers; 100 mg QD for 14 days (N = 8)", "result": "2 (25.0) n (%)"}, {"measurement": "Flatulence, number of subjects reporting TEAE", "setting": "healthy volunteers; 100 mg QD for 14 days (N = 8)", "result": "0 n (%)"}, {"measurement": "Headache, E = number of TEAE", "setting": "healthy volunteers; 100 mg QD for 14 days (N = 8)", "result": 3}, {"measurement": "Headache, number of subjects reporting TEAE", "setting": "healthy volunteers; 100 mg QD for 14 days (N = 8)", "result": "3 (37.5) n (%)"}, {"measurement": "Nasal congestion, number of subjects reporting TEAE", "setting": "healthy volunteers; 100 mg QD for 14 days (N = 8)", "result": "0 n (%)"}, {"measurement": "Nausea, number of subjects reporting TEAE", "setting": "healthy volunteers; 100 mg QD for 14 days (N = 8)", "result": "0 n (%)"}, {"measurement": "Pharyngolaryngeal pain, E = number of TEAE", "setting": "healthy volunteers; 100 mg QD for 14 days (N = 8)", "result": 1}, {"measurement": "Pharyngolaryngeal pain, number of subjects reporting TEAE", "setting": "healthy volunteers; 100 mg QD for 14 days (N = 8)", "result": "1 (12.5) n (%)"}, {"measurement": "Rhinitis, E = number of TEAE", "setting": "healthy volunteers; 100 mg QD for 14 days (N = 8)", "result": 1}, {"measurement": "Rhinitis, number of subjects reporting TEAE", "setting": "healthy volunteers; 100 mg QD for 14 days (N = 8)", "result": "1 (12.5) n (%)"}, {"measurement": "Total TEAEs, E = number of TEAE", "setting": "healthy volunteers; 100 mg QD for 14 days (N = 8)", "result": 10}, {"measurement": "Total TEAEs, number of subjects reporting TEAE", "setting": "healthy volunteers; 100 mg QD for 14 days (N = 8)", "result": "4 (50.0) n (%)"}, {"measurement": "Dermatitis contact, E = number of TEAE", "setting": "healthy volunteers; 200 mg QD for 14 days (N = 8)", "result": 1}, {"measurement": "Dermatitis contact, number of subjects reporting TEAE", "setting": "healthy volunteers; 200 mg QD for 14 days (N = 8)", "result": "1 (12.5) n (%)"}, {"measurement": "Dizziness, E = number of TEAE", "setting": "healthy volunteers; 200 mg QD for 14 days (N = 8)", "result": 1}, {"measurement": "Dizziness, number of subjects reporting TEAE", "setting": "healthy volunteers; 200 mg QD for 14 days (N = 8)", "result": "1 (12.5) n (%)"}, {"measurement": "Flatulence, number of subjects reporting TEAE", "setting": "healthy volunteers; 200 mg QD for 14 days (N = 8)", "result": "0 n (%)"}, {"measurement": "Headache, number of subjects reporting TEAE", "setting": "healthy volunteers; 200 mg QD for 14 days (N = 8)", "result": "0 n (%)"}, {"measurement": "Nasal congestion, E = number of TEAE", "setting": "healthy volunteers; 200 mg QD for 14 days (N = 8)", "result": 1}, {"measurement": "Nasal congestion, number of subjects reporting TEAE", "setting": "healthy volunteers; 200 mg QD for 14 days (N = 8)", "result": "1 (12.5) n (%)"}, {"measurement": "Nausea, E = number of TEAE", "setting": "healthy volunteers; 200 mg QD for 14 days (N = 8)", "result": 3}, {"measurement": "Nausea, number of subjects reporting TEAE", "setting": "healthy volunteers; 200 mg QD for 14 days (N = 8)", "result": "1 (12.5) n (%)"}, {"measurement": "Pharyngolaryngeal pain, E = number of TEAE", "setting": "healthy volunteers; 200 mg QD for 14 days (N = 8)", "result": 1}, {"measurement": "Pharyngolaryngeal pain, number of subjects reporting TEAE", "setting": "healthy volunteers; 200 mg QD for 14 days (N = 8)", "result": "1 (12.5) n (%)"}, {"measurement": "Rhinitis, number of subjects reporting TEAE", "setting": "healthy volunteers; 200 mg QD for 14 days (N = 8)", "result": "0 n (%)"}, {"measurement": "Total TEAEs, E = number of TEAE", "setting": "healthy volunteers; 200 mg QD for 14 days (N = 8)", "result": 15}, {"measurement": "Total TEAEs, number of subjects reporting TEAE", "setting": "healthy volunteers; 200 mg QD for 14 days (N = 8)", "result": "3 (37.5) n (%)"}, {"measurement": "serious or severe TEAE", "setting": "healthy volunteers; 25-200 mg QD for 14 days", "result": "no serious or severe TEAE was reported"}, {"measurement": "subjects reporting treatment-emergent adverse events", "setting": "healthy volunteers; active, 25-200 mg QD for 14 days", "result": "16/32"}, {"measurement": "tolerability", "setting": "healthy volunteers; doses up to 200 mg QD for 14 days", "result": "well tolerated"}, {"measurement": "NOEL for developmental toxicity", "setting": "[1]", "result": 20, "unit": "mg/kg/day"}, {"measurement": "doses at which developmental effects were observed", "setting": "[1]", "result": 40, "unit": "mg/kg/day"}, {"measurement": "teratogenicity", "setting": "[1]", "result": "teratogenic"}, {"measurement": "litters with viable fetuses for evaluation on GD 29", "setting": "[1]; 10 mg/kg/day", "result": 19}, {"measurement": "main study pregnancy index", "setting": "[1]; 10 mg/kg/day", "result": 95, "unit": "%"}, {"measurement": "litters with viable fetuses for evaluation on GD 29", "setting": "[1]; 20 mg/kg/day", "result": 20}, {"measurement": "main study pregnancy index", "setting": "[1]; 20 mg/kg/day", "result": 100, "unit": "%"}, {"measurement": "litters with viable fetuses for evaluation on GD 29", "setting": "[1]; 40 mg/kg/day", "result": 10}, {"measurement": "main study pregnancy index", "setting": "[1]; 40 mg/kg/day", "result": 95, "unit": "%"}, {"measurement": "litters containing one or more fetuses with a malformation", "setting": "[1]; 40 mg/kg/day, GD 29, controls 25%", "result": 70, "unit": "%"}, {"measurement": "NOAEL", "setting": "[2]", "result": 20, "unit": "mg/kg/day"}]}]}
